What was measured:
GluK3 = biological target: T1, GluK3 (Rattus norvegicus, UniProt P42264); experiment: Radioligand binding at recombinant homomeric GluK3 in Sf9 membranes; conditions: recombinant rat homomeric receptor, [3H]-kainic acid, mean ± SEM
T1 construct: made in house; host or cells: Sf9 insect cells (membranes)
Method: (§1) Ligand binding affinities at recombinant rat homomeric GluA2, GluK1−3, and GluK5 were determined as previously detailed. […] The filters were dried at 70 °C for 1 h, and 50 μL/well Microscint 20 (PerkinElmer, Waltham, MA, USA) was added. Radioactivity was detected with a TopCounter (PerkinElmer, Waltham, MA, USA). GluA2 and GluK5 assays were filtered on GF/C type filters using Millipore 12-well filtration manifolds (Merck Life Science, Søborg, Denmark) and washed twice with ice-cold assay buffer. Filters were placed in pony vials (PerkinElmer, Waltham, MA, USA), 3 mL of Ultima Gold scintillation fluid (PerkinElmer, Waltham, MA, USA) was added, and DPM (disintegrations per minute) were determined using a TriCarb 2900 scintillation counter (PerkinElmer, Waltham, MA, USA).
(§2) All competition curves (n ≥ 3 per ligand) were determined in triplicate. Data were analyzed using GraphPad Prism 6 (GraphPad Software, San Diego, CA, USA) to determine ligand affinity (Ki) and Hill coefficient (nH) using the one-site Ki and four-parameter logistics equations, respectively.

GluK1 = biological target: T2, GluK1 (Rattus norvegicus, UniProt P22756); experiment: Radioligand binding at recombinant homomeric GluK1 in Sf9 membranes; conditions: recombinant rat homomeric receptor, [3H]-(S)-NF608, mean ± SEM
T2 construct: made in house; host or cells: Sf9 insect cells (membranes)
Method: as §1, §2

GluK5 = biological target: T3, GluK5 (Rattus norvegicus, UniProt Q63273); experiment: Radioligand binding at recombinant homomeric GluK5 in Sf9 membranes; conditions: recombinant rat homomeric receptor, [3H]-kainic acid, mean ± SEM
T3 construct: made in house; host or cells: Sf9 insect cells (membranes)
T3 sequence (Q63273 15-979): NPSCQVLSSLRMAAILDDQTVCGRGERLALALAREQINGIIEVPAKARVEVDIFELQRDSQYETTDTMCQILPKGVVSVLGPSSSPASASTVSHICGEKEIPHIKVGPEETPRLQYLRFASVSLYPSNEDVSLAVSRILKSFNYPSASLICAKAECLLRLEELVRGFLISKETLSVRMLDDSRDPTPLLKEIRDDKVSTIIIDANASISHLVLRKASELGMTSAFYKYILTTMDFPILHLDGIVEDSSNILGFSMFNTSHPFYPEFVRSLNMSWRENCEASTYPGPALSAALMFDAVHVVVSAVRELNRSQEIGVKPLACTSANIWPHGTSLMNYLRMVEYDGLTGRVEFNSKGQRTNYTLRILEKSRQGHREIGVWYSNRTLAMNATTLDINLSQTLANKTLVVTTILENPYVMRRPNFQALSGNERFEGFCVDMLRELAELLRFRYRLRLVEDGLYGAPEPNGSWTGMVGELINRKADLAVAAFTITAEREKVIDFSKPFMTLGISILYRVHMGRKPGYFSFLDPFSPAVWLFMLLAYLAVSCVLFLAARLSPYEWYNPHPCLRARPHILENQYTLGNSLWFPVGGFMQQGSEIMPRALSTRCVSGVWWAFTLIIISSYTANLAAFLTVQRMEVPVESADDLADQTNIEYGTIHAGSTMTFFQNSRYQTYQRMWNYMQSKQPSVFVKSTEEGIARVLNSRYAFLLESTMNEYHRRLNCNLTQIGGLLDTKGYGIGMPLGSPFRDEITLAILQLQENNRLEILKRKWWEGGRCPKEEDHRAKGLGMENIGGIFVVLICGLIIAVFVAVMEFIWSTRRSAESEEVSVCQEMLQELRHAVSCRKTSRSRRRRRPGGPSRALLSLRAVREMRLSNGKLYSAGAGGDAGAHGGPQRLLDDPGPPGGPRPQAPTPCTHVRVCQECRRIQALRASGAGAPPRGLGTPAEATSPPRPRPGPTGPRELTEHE
Method: as §1, §2

T2 sequence (P22756 31-949): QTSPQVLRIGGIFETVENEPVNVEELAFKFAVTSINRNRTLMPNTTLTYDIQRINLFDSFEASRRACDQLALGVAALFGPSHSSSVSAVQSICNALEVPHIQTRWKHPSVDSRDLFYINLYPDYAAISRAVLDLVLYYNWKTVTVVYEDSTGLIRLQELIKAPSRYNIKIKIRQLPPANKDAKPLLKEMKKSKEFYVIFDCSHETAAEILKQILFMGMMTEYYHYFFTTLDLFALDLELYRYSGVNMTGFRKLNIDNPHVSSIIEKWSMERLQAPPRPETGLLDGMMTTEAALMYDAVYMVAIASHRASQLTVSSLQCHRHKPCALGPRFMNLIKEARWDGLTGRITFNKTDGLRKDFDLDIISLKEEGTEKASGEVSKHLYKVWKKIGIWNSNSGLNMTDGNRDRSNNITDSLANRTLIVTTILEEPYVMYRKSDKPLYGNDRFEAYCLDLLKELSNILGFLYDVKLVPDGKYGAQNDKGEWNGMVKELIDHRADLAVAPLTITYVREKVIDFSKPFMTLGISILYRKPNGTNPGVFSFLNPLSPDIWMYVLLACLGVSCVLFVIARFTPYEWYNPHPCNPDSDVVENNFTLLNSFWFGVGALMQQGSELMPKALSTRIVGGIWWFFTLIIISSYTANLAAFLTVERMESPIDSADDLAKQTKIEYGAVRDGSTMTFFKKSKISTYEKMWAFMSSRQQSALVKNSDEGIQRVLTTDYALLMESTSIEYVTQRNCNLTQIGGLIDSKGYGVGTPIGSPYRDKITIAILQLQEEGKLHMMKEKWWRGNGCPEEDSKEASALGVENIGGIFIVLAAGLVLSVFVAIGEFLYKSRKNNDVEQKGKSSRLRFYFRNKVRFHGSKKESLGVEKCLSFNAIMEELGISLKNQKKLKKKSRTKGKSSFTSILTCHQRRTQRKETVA
T1 sequence (P42264 32-919): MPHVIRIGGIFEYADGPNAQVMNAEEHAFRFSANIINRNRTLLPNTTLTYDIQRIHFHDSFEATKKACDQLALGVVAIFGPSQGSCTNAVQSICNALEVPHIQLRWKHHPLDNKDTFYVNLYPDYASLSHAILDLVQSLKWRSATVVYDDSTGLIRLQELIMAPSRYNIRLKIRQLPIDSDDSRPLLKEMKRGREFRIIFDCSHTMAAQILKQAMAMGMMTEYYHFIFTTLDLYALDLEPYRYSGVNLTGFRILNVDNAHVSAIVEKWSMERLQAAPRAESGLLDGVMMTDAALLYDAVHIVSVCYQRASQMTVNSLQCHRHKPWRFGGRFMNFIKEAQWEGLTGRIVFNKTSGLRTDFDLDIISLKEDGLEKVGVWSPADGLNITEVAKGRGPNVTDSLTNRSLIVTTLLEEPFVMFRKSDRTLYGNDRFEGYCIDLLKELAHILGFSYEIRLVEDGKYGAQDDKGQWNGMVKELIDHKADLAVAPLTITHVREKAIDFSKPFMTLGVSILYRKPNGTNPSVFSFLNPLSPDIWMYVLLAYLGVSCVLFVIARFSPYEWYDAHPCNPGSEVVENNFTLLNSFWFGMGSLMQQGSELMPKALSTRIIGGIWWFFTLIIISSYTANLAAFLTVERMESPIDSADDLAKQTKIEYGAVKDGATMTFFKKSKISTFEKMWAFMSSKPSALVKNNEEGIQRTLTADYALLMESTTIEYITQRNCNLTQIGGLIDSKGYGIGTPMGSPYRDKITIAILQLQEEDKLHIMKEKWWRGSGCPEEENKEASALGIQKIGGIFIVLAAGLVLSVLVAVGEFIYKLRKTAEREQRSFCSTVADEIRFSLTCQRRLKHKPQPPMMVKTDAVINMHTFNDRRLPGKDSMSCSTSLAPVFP

Ki (GluK3): 0.25 ± 0.01 µM | Ki (GluK1): ~100 µM | Ki (GluK5): > 100 µM
Structure (SMILES): O=C(Nn1c(=O)c(=O)[nH]c2cc(C#Cc3cnc4cccnn34)ccc21)c1ccccc1 [Compound 28]
